# According to PubChem BioAssay (NCI):
#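 The compound was tested at five concentrations on cells cultured in 96-well plates, with a 48-hour exposure period. GI50: concentration for 50% inhibition of growth. The concentration for full growth arrest is given as TGI.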
# Experiments:
# Experiment in all cases: DTP human tumour cell line panel, 48 h
# DLD-1 colon = system: DLD-1 colon
# EKVX NSCLC = system: EKVX NSCLC
# HL-60(TB) leukemia = system: HL-60(TB) leukemia
# HOP-18 NSCLC = system: HOP-18 NSCLC
# IGROV1 ovarian = system: IGROV1 ovarian
# K-562 leukemia = system: K-562 leukemia
# NCI-H522 lung = system: NCI-H522 lung
# SF-268 CNS = system: SF-268 CNS
# SNB-78 CNS = system: SNB-78 CNS
# U251 CNS = system: U251 CNS
# DMS 114 small cell lung = system: DMS 114 small cell lung
# MCF7 breast = system: MCF7 breast
# MDA-N = system: MDA-N
Compound,TGI (DLD-1 colon) [µM],TGI (EKVX NSCLC) [µM],TGI (HL-60(TB) leukemia) [µM],TGI (HOP-18 NSCLC) [µM],TGI (IGROV1 ovarian) [µM],TGI (K-562 leukemia) [µM],TGI (NCI-H522 lung) [µM],TGI (SF-268 CNS) [µM],TGI (SNB-78 CNS) [µM],TGI (U251 CNS) [µM],TGI (DMS 114 small cell lung) [µM],TGI (MCF7 breast) [µM],TGI (MDA-N) [µM],GI50 (EKVX NSCLC) [µM],GI50 (HL-60(TB) leukemia) [µM],GI50 (K-562 leukemia) [µM],GI50 (MCF7 breast) [µM],GI50 (NCI-H522 lung) [µM],GI50 (SF-268 CNS) [µM]
CCOC(=O)/C(C1=N[C@H](C(=O)OCC)CS1)=C(\O)c1ccccc1,> 100,> 100,> 100,> 100,> 100,> 100,> 100,> 100,> 100,> 100,,,,,,,,,
O=P1(N(CCCl)CCCl)NCCCO1 (stereo not given),> 250,> 250,220,150,> 239,> 230,> 250,> 250,> 216,> 250,> 250,> 250,> 250,,,,,,
COc1ccccc1NC(=O)CSC(N)=O,> 100,> 100,> 100,> 100,> 100,> 100,> 100,> 100,> 100,66.2,> 100,,,,,,,,
Cc1ccc(Cl)c2c(=O)cc(-c3ccccc3)[nH]c12,> 100,,> 100,> 100,> 100,> 100,> 100,> 100,,> 100,,,,,,,,,
O=C(NCCNCCO)N/N=C/c1ccccc1,> 100,,> 100,> 100,> 100,> 100,> 100,> 100,> 100,> 100,> 100,,,,,,,,
COc1cccc(OC/C(N=Cc2ccncc2)=N/NC(=O)c2ccncc2)c1,,> 100,> 100,,> 100,> 100,> 100,> 100,,> 100,,> 100,> 100,,,,,,
CN1CCCC(OC(=O)c2cc3cc(CCl)ccc3oc2=O)C1 (stereo not given),,91.5,13.2,,> 100,> 100,34.7,47,,30.1,,50.1,46,,,,,,
COC(C[C@H]1CCCC[C@]1(O)/C(=C\CO[Si](C(C)C)(C(C)C)C(C)C)Sc1ccccc1)OC,,> 100,> 100,,> 100,> 100,39.6,> 100,,51.8,,> 100,> 100,,,,,,
CC(C)(C)C(=O)O[C@H]1C=C[C@@H](O)[C@@H]2[C@H]1[C@@H]1C=C[C@H]2C1,,> 100,33.8,,> 100,> 100,79.8,> 100,,> 100,,39.9,> 100,,,,,,
CC(C)Oc1cc2c(cc1O)CC[C@@H]1[C@@H]2CC[C@]2(C)[C@@H](O)CC[C@@H]12,,> 62,> 38.1,,42.9,30.8,6.75,51.7,,24.4,,30.3,3.6,,,,,,
Cc1cccc(=O)c([O-])c1.Cc1cccc(=O)c([O-])c1.Cc1cccc(=O)c([O-])c1.Cc1cccc(=O)c([O-])c1.[Th+4],> 100,> 89.1,4.18,> 100,> 100,> 38.6,,> 100,> 100,> 100,15.6,,,,,,,,
CCCCCCCCCCC[N+]1(Cc2ccccc2)CC2CCN(Cc3ccccc3)CC2C1 (stereo not given),,1.37,0.277,,1.78,0.827,1.29,2.13,,1.11,,1.62,1.25,,,,,,
Clc1ccc(Cc2nc3ccccc3nc2-c2cccc(Cl)c2)cc1,,31.9,6.29,,3.66,5.79,3.41,44.4,,16.7,,13,5.64,,,,,,
C#Cc1cccc(Nc2ncnc3cc(OCCOC)c(OCCOC)cc23)c1,,> 93.7,> 100,,16.9,> 100,27.1,> 100,,99,,> 100,> 100,0.301,20.6,27.7,> 100,0.901,14.6
Cc1sc2nc3n(sc4nc5sc(C)c(C)c5c(=O)n43)c(=O)c2c1C,,98.4,> 100,,> 100,> 100,32,> 100,,> 100,,> 100,> 100,,,,,,
COC(=O)NC(Nc1ccc(C)cc1)(C(F)(F)F)C(F)(F)F,,> 100,> 100,,> 100,> 100,> 100,> 100,,> 100,,> 100,> 100,,,,,,
O=C1NC(=S)N/C1=C\c1ccc(Sc2ccccc2C(=O)O)s1,,> 100,> 100,,> 100,> 100,44.4,> 100,,> 100,,> 100,> 100,,,,,,
Cc1ccc(C2(N3CCOCC3)OC(C)(C)c3cccc4cccc2c34)cc1 (stereo not given),,29.2,> 100,,35.2,> 100,30.8,28.7,,30.7,,33.2,34.1,,,,,,
Cc1c(Cl)c(=O)oc2cc(OCC(O)COC(C)C)ccc12 (stereo not given),,> 100,56.9,,> 100,> 100,> 100,> 100,,> 100,,65.3,> 100,,,,,,
Cc1cn([C@@H]2C[C@](C)(CO)N(C)O2)c(=O)[nH]c1=O,,> 100,> 100,,> 100,> 100,> 100,> 100,,> 100,,> 100,> 100,,,,,,
CN(c1ccc(Cl)cc1)S(=O)(=O)c1ccccc1,,> 100,> 100,,> 100,> 100,> 100,> 100,,> 100,,> 100,> 100,,,,,,
O=C1/C(=C/c2cccs2)N=C(c2ccccc2)N1c1nc2ccccc2s1,,> 100,> 100,,> 100,> 100,17.3,29.8,,> 100,,> 100,> 100,,,,,,
C=C(C)[C@@H]1CC[C@]2(C(=O)OC3OC(COC4OC(CO)C(OC5OC(C)C(O)C(O)C5O)C(O)C4O)C(O)C(O)C3O)CC[C@]3(C)[C@H](CC[C@@H]4[C@@]5(C)CC[C@H](O)[C@@](C)(CO)[C@@H]5CC[C@]43C)[C@@H]12 (stereo not given in full),,> 10,1.13,,> 10,> 6.45,9.56,9.89,,> 10,,> 10,> 10,,,,,,
Cc1ccc(C(=O)NN=C(/N=N/c2cccc(C)c2)c2ccc(N(C)C)cc2)cc1,,> 100,> 100,,> 100,> 100,> 100,> 100,,> 100,,> 100,> 100,,,,,,
